Experimental data from ChEMBL document CHEMBL4507291 (2021).

What was measured:
[1] = target: T1, Tyrosine-protein kinase Mer (Homo sapiens) (UniProt Q12866); assay: MERTK (cMER) Kinase screen; conditions: Compound concentration 1.0 uM
T1 sequence (whole entry): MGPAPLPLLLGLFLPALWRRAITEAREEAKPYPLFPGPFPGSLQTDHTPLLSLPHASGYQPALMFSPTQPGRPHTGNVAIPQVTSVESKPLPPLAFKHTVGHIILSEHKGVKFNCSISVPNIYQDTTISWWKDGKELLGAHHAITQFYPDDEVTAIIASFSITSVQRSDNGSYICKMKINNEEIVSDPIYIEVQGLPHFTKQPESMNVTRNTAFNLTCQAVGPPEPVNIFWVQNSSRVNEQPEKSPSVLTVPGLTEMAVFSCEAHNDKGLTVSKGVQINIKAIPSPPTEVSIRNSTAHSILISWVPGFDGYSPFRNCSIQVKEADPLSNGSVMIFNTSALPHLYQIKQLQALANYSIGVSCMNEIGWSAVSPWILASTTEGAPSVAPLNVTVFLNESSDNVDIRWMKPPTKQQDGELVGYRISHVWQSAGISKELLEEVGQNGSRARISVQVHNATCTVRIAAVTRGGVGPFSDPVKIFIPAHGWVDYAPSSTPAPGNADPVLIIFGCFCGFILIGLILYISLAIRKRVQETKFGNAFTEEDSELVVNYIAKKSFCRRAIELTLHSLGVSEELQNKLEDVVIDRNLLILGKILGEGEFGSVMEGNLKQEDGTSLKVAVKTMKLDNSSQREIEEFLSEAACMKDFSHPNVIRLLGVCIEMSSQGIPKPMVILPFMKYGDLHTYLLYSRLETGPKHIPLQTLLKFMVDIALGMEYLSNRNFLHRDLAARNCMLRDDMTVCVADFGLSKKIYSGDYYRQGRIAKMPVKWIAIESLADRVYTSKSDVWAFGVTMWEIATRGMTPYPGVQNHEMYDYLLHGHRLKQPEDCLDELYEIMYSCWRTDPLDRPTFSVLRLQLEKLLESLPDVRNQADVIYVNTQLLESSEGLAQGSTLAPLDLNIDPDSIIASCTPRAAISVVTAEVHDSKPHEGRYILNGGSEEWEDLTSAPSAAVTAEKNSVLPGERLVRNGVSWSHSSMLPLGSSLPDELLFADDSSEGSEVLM

[2] = target: Prostacyclin receptor (Homo sapiens) (UniProt P43119); assay: Prostanoid IP Eurofins-Panlabs radioligand binding assay; conditions: Compound concentration 10.0 uM
[3] = target: T2, Myotonin-protein kinase (Homo sapiens) (UniProt Q09013); assay: DMPK Kinase screen; conditions: Compound concentration 1.0 uM
T2 sequence (whole entry): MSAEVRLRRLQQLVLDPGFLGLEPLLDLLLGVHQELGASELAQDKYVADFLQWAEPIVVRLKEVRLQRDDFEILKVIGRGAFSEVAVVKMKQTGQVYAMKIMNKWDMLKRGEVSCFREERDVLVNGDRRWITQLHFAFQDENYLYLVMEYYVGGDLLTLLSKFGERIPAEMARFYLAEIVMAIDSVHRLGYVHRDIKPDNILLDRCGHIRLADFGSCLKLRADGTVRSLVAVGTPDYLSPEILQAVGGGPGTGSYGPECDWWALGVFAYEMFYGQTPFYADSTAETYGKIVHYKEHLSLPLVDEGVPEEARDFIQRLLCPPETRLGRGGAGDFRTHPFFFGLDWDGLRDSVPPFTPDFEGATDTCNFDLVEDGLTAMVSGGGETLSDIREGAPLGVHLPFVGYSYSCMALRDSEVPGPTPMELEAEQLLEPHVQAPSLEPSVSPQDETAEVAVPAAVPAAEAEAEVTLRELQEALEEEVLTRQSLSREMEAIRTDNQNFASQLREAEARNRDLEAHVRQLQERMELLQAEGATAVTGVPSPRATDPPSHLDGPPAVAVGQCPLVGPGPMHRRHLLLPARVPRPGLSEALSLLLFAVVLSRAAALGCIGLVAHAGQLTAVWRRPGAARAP

[4] = target: T3, Serine/threonine-protein kinase Nek1 (Homo sapiens) (UniProt Q96PY6); assay: NEK1 Kinase screen; conditions: Compound concentration 1.0 uM
T3 sequence (whole entry): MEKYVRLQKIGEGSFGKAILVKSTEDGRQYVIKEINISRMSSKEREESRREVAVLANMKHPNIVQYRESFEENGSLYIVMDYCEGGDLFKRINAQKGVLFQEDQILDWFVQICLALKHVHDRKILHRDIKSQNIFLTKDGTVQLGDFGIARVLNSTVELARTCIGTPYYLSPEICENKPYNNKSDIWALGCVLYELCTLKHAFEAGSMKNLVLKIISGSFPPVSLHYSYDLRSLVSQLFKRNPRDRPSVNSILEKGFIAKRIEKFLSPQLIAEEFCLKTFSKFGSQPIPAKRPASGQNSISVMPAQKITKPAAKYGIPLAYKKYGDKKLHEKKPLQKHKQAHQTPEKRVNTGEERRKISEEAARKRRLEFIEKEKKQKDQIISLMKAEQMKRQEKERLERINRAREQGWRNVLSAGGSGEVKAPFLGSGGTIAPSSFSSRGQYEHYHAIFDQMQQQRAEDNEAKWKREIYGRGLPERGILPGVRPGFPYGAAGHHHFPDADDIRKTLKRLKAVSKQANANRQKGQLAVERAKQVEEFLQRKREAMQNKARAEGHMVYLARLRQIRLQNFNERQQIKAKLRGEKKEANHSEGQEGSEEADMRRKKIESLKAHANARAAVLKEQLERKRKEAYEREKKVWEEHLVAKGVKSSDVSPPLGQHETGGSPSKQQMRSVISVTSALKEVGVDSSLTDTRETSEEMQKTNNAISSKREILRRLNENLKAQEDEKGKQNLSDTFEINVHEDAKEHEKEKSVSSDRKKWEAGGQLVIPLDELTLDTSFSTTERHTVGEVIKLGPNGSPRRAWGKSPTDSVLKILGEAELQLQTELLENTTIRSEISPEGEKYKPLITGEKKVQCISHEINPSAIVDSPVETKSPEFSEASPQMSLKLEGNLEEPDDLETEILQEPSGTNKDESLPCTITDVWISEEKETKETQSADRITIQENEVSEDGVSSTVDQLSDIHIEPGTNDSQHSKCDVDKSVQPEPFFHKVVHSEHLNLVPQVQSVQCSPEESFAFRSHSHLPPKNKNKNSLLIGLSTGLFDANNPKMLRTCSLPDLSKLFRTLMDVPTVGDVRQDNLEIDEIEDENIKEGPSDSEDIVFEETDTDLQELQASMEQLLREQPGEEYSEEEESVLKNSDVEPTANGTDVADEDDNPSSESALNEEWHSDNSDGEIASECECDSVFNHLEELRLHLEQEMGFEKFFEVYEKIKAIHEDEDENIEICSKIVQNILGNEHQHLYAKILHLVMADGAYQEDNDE

[5] = target: Sodium-dependent dopamine transporter (Homo sapiens) (UniProt Q01959); conditions: Compound concentration 10.0 uM
[6] = target: NT-3 growth factor receptor (Homo sapiens) (UniProt Q16288); assay: NTRK3 (TRKC) Kinase screen; conditions: Compound concentration 1.0 uM

Measured: inhibition

Sequence of Sodium-dependent dopamine transporter (Homo sapiens) (Q01959 whole entry): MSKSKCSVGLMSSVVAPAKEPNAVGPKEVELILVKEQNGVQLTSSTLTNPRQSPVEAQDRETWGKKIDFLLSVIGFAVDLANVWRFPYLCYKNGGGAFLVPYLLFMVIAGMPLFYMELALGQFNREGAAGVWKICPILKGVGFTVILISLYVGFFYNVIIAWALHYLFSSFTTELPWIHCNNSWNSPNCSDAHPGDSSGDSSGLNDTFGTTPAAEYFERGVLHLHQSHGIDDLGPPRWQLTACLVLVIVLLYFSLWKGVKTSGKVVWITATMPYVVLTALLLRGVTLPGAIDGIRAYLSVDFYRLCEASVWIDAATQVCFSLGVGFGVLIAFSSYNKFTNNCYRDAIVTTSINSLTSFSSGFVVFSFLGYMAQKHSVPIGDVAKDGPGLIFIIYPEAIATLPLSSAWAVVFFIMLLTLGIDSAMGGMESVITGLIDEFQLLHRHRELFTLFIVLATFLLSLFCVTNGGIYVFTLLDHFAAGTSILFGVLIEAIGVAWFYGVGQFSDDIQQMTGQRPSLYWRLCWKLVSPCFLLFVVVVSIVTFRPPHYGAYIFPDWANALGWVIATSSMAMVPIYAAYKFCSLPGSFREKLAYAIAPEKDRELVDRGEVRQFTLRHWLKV
Sequence of Prostacyclin receptor (Homo sapiens) (P43119 whole entry): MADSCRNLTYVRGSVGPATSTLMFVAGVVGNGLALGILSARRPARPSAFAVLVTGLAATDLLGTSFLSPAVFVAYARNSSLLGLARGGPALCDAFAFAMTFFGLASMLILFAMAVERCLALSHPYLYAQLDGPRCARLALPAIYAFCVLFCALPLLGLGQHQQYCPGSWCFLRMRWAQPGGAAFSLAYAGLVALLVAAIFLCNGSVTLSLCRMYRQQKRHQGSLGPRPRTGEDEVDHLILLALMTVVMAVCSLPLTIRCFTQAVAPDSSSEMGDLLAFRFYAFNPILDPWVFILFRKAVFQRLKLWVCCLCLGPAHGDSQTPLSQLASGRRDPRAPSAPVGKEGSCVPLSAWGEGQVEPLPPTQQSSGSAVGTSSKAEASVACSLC
Sequence of NT-3 growth factor receptor (Homo sapiens) (Q16288 32-839 limits assumed): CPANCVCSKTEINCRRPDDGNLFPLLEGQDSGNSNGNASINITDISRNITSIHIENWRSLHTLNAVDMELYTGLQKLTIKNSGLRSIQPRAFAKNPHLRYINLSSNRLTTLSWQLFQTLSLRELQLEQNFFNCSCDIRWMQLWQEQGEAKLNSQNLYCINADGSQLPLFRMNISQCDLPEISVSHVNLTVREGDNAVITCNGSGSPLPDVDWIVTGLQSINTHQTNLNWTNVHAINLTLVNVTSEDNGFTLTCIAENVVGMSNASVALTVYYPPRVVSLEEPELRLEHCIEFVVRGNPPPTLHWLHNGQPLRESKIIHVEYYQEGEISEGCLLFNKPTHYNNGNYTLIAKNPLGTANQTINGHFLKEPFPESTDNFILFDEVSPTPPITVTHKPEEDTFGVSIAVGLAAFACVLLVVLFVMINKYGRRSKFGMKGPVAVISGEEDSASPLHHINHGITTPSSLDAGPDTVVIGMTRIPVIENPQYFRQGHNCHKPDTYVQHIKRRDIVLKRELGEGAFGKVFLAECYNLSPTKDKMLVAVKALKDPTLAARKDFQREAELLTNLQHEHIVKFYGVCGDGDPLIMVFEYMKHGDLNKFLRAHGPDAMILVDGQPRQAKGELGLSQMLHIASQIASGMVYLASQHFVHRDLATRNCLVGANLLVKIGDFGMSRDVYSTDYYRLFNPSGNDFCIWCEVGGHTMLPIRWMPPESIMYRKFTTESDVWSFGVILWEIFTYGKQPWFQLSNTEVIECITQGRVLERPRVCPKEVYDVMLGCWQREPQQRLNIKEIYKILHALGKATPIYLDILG

C[C@@H]1CN(c2cc(-c3n[nH]c4ccc(OC5(C)CC5)cc34)ncn2)C[C@H](C)O1 [MLi-2]
inactive: [1] 4.76% | [2] -9% | [3] 5.71% | [4] 3.48% | [5] 16% | [6] 14.9%
